Laboratory results from patent EP4793641A1, “NOVEL METHOD FOR ANALYZING BIOMOLECULAR INTERACTIONS” (Kyoto University, priority 2023, dated 2025).
Residues, ends and D or L forms follow the SMILES beside them.

These compounds were tested against T1, interactions between Talin 1 (TLN1) and integrin subunit beta (ITGB) (Homo sapiens, UniProt Q9Y490) (assay: Flip-flop detection mechanism on DNA origami (LgBit/SmBit luminescence), inhibitor screening). Conditions: inhibition of binding between TLN1 and ITBG.
T1 construct: LgBit or SmBit (N-terminal of the HaloTag); made in house
Type: biochemical
Text: Two types of systems, i.e., flip-flop detection mechanism and switch detection mechanism, were constructed by using HaloTag, LgBit, SmBit, TLN1, and ITGB. Each of TLN1 (Uniprot ID: Q9Y490) and ITGB1 (Uniprot ID: P05556) was cloned from the registered genetic information. HaloTAg has three chemically modifiable locations at a ligand recognition site, C-terminus, and N-terminus. In this Example, a single-stranded DNA for attaching to DNA origami was connected to a ligand recognition site of HaloTag, a subunit of an interaction complex was connected to the C-terminus, and LgBit or SmBit was connected to the N-terminus.
The outline of the system is disclosed in Figure 23. When TLN1 and ITBG are in a bound state in this system, LgBit and SmBit are at spatially separated positions from each other, with a HaloTag interposed therebetween. In this regard, if an inhibitor is added, complex formation of TLN1 and ITBG is inhibited. As a result, a LgBit-SmBit complex can be formed, and a luminescence reaction progresses.
As a candidate drug for inhibiting the binding between TLN1 and ITBG, peptide inhibitors consisting of 13 amino acids prepared by modifying amino acids in an intracellular region of ITGB3 have been designed (Shen B. et al., A directional switch of integrin signaling and a new antithrombotic strategy. Nature 503, 131-135 (2013)). IC50 values for the peptides shown in the following table were calculated by using the flip-flop detection mechanism described in Example 11 for optimizing the sequence. In this manner, the effect of a large number of compounds on the interaction with a target protein can be readily analyzed in the system of the present disclosed.
In the case of `CSCC[C@H](NC(=O)[C@H](Cc1c[nH]c2ccccc12)NC(=O)[C@H](CCCCN)NC(=O)[C@H](CS)NC(=O)[C@H](CC(N)=O)NC(=O)[C@H](CCSC)NC(=O)[C@H](CCCCN)NC(=O)[C@H](CCC(=O)O)NC(=O)[C@H](CCCCN)NC(=O)[C@H](CCC(=O)O)NC(=O)[C@@H](N)Cc1ccccc1)C(=O)O` [FIYM24] (H-FEKEKMNCKWM-OH), the Inhibitory activity is reported as “no inhibition”.
With `CSCC[C@H](NC(=O)[C@H](CCCNC(=N)N)NC(=O)[C@H](CCC(=O)O)NC(=O)[C@@H](N)Cc1ccccc1)C(=O)N[C@@H](CC(N)=O)C(=O)N[C@@H](CS)C(=O)N[C@@H](CCCCN)C(=O)N[C@@H](Cc1c[nH]c2ccccc12)C(=O)N[C@@H](CCSC)C(=O)N[C@H](C(=O)O)[C@@H](C)O` [FIYM25] (H-FERMNCKWMT-OH) the Inhibitory activity was “no inhibition”.
For `CSCC[C@H](NC(=O)[C@H](CCCNC(=N)N)NC(=O)[C@H](CCC(=O)O)NC(=O)[C@H](CCCCN)NC(=O)[C@H](CCC(=O)O)NC(=O)[C@H](Cc1ccccc1)NC(=O)[C@@H](N)CCCCN)C(=O)N[C@@H](CC(N)=O)C(=O)N[C@@H](CS)C(=O)N[C@@H](CCCCN)C(=O)N[C@@H](Cc1c[nH]c2ccccc12)C(=O)N[C@@H](CCSC)C(=O)N[C@H](C(=O)O)[C@@H](C)O` [FIYM28] (H-KFEKERMNCKWMT-OH), the Inhibitory activity was “no inhibition”.
With `CSCC[C@H](NC(=O)[C@H](CCCCN)NC(=O)[C@H](CCC(=O)O)NC(=O)[C@H](CCCCN)NC(=O)[C@H](CCC(=O)O)NC(=O)[C@H](Cc1ccccc1)NC(=O)[C@@H](N)CCCCN)C(=O)N[C@@H](CCSC)C(=O)N[C@@H](CS)C(=O)N[C@@H](CCCCN)C(=O)N[C@@H](Cc1c[nH]c2ccccc12)C(=O)N[C@@H](CCSC)C(=O)N[C@H](C(=O)O)[C@@H](C)O` [FIYM29] (H-KFEKEKMMCKWMT-OH) the Inhibitory activity was “no inhibition”.
`CSCC[C@H](NC(=O)[C@H](CCCNC(=N)N)NC(=O)[C@H](CCC(=O)O)NC(=O)[C@H](CCCCN)NC(=O)[C@H](CCC(=O)O)NC(=O)[C@H](Cc1ccccc1)NC(=O)[C@@H](N)CCCNC(=N)N)C(=O)N[C@@H](CC(N)=O)C(=O)N[C@@H](CS)C(=O)N[C@@H](CCCCN)C(=O)N[C@@H](Cc1c[nH]c2ccccc12)C(=O)N[C@@H](CCSC)C(=O)N[C@H](C(=O)O)[C@@H](C)O` [FIYM30] (H-RFEKERMNCKWMT-OH) was tested, and the Inhibitory activity was “no inhibition”.

Same assay, conditions: inhibition of binding between TLN1 and ITBG, read-out: Inhibitory activity
Compound `CSCC[C@H](NC(=O)[C@H](Cc1c[nH]c2ccccc12)NC(=O)[C@H](CCCCN)NC(=O)[C@H](CS)NC(=O)[C@H](CC(N)=O)NC(=O)[C@H](CCSC)NC(=O)[C@H](CCCCN)NC(=O)[C@H](CCC(=O)O)NC(=O)[C@H](CCCCN)NC(=O)[C@H](CCC(=O)O)NC(=O)[C@H](Cc1ccccc1)NC(=O)[C@@H](N)CCCCN)C(=O)O` [FIYM22] (H-KFEKEKMNCKWM-OH) has an IC50 of 472 µM.
`CSCC[C@H](NC(=O)[C@H](CCCCN)NC(=O)[C@H](CCC(=O)O)NC(=O)[C@H](CCCCN)NC(=O)[C@H](CCC(=O)O)NC(=O)[C@@H](N)Cc1ccccc1)C(=O)N[C@@H](CC(N)=O)C(=O)N[C@@H](CS)C(=O)N[C@@H](CCCCN)C(=O)N[C@@H](Cc1c[nH]c2ccccc12)C(=O)N[C@@H](CCSC)C(=O)N[C@H](C(=O)O)[C@@H](C)O` [FIYM23] (H-FEKEKMNCKWMT-OH) showed an IC50 of 444 µM.
Compound `CSCC[C@H](NC(=O)[C@H](CCCCN)NC(=O)[C@H](CCC(=O)O)NC(=O)[C@H](CCCCN)NC(=O)[C@H](CCC(=O)O)NC(=O)[C@H](Cc1ccccc1)NC(=O)[C@@H](N)CCCNC(=N)N)C(=O)N[C@@H](CC(N)=O)C(=O)N[C@@H](CS)C(=O)N[C@@H](CCCCN)C(=O)N[C@@H](Cc1c[nH]c2ccccc12)C(=O)N[C@@H](CCSC)C(=O)N[C@H](C(=O)O)[C@@H](C)O` [FIYM26] (H-RFEKEKMNCKWMT-OH) has an IC50 of 76.9 µM.
Compound `CSCC[C@H](NC(=O)[C@H](CCCCN)NC(=O)[C@H](CCC(=O)O)NC(=O)[C@H](CCCNC(=N)N)NC(=O)[C@H](CCC(=O)O)NC(=O)[C@H](Cc1ccccc1)NC(=O)[C@@H](N)CCCCN)C(=O)N[C@@H](CC(N)=O)C(=O)N[C@@H](CS)C(=O)N[C@@H](CCCCN)C(=O)N[C@@H](Cc1c[nH]c2ccccc12)C(=O)N[C@@H](CCSC)C(=O)N[C@H](C(=O)O)[C@@H](C)O` [FIYM27] (H-KFEREKMNCKWMT-OH) has an IC50 of 94.7 µM.
